Results taken from BindingDB's records for doi:10.1016/s0960-894x(01)00814-9 (Friedrich-Alexander University, 2002).

Molecular target: 5-hydroxytryptamine receptor 1A (Sus scrofa)
Assay: Compound was tested in vitro for its ability to compete with [3H]8-OH-DPAT at 5-hydroxytryptamine 1A receptor in porcine brain homogenate

N#Cc1cccc2c(CN3CCN(c4ccc(Cl)cc4)CC3)cnn12 [3-[4-(4-Chloro-phenyl)-piperazin-1-ylmethyl]-pyrazolo[1,5-a]pyridine-7-carbonitrile]
Ki: 2.2 µM
